Here are results for seven compounds from ChEMBL document CHEMBL1909046, “DrugMatrix in vitro pharmacology data”.

The nature of series [1]: DRUGMATRIX: ATPase, Na+/K+ enzyme inhibition (substrate: ATP). It is filed as tissue-based, Sus scrofa, Heart. The following applies: Not Active = under 50% inhibition at 10 µM.
The nature of series [2]: DRUGMATRIX: beta-Lactamase enzyme inhibition (substrate: Nitrocefin). Further details: species or system Bacillus cereus. The following applies: Not Active = under 50% inhibition at 10 µM.
Series [3] is described as follows: DRUGMATRIX: Calcium Channel Type L, Dihydropyridine radioligand binding (ligand: [3H] Nitrendipine). The format is cell membranes, Rattus norvegicus, Wistar, Cerebral cortex, Membrane. The following applies: Not Active = under 50% inhibition at 10 µM.
A further series deals with Substance-P receptor (Homo sapiens, UniProt P25103). The format is cell membranes, CHO, Membrane. The following applies: cho.
Chain of Substance-P receptor (P25103 whole entry): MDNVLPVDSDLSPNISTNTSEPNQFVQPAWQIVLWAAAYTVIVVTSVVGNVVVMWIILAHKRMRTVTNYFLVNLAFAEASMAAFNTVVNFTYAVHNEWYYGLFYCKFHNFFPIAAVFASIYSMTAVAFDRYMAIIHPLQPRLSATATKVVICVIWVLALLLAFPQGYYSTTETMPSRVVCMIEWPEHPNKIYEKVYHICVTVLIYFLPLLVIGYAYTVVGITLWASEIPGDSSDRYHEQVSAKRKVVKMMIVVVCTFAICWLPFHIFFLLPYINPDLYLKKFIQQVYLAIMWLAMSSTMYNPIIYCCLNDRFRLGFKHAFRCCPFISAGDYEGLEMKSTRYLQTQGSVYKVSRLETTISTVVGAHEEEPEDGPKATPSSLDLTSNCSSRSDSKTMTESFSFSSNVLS
The target of a further series is Cannabinoid receptor 1 (Homo sapiens, UniProt P21554). The format is cell membranes, Membrane. The following applies: chem-1. Further: in other assays of this panel Not Active means under 50% inhibition at 10 µM.
Chain of Cannabinoid receptor 1 (P21554 whole entry): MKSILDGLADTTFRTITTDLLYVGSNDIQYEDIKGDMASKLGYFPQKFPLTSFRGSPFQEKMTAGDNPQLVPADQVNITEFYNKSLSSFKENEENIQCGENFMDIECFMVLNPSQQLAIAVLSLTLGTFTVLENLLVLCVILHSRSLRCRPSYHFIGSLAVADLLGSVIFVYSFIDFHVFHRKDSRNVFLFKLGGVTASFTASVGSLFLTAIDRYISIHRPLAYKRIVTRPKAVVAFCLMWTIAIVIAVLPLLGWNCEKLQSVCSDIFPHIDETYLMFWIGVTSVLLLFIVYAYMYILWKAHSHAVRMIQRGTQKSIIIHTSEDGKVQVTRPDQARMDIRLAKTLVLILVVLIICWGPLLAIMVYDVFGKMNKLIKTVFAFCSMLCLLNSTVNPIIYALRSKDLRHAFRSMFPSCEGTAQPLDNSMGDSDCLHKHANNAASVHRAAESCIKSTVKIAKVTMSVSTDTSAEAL
A further series addresses D(3) dopamine receptor (Homo sapiens, UniProt P35462). The experiment in a line: DRUGMATRIX: Dopamine D3 radioligand binding (ligand: [3H] Spiperone). The format is cell membranes, CHO, Membrane.
Another series addresses Insulin receptor (Rattus norvegicus, UniProt P15127). It is filed as cell membranes, Wistar, Liver, Membrane.
Another series deals with Melanocortin receptor 4 (Homo sapiens, UniProt P32245). The format is cell membranes, Membrane. The following applies: hek293.
Chain of Melanocortin receptor 4 (P32245 whole entry): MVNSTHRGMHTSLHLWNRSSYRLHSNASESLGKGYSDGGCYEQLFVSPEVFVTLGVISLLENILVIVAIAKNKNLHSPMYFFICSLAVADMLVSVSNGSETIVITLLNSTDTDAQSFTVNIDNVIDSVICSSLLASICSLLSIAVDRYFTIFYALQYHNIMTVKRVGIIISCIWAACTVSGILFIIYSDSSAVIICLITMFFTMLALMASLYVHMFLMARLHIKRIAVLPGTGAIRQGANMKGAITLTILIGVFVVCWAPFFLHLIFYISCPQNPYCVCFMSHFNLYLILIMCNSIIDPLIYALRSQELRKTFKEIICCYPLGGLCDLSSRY
For series [4], the target named is T1, Neuropeptide Y receptor type 2 (Homo sapiens, UniProt P49146). Further: in other assays of this panel Not Active means under 50% inhibition at 10 µM.
T1 sequence (P49146 whole entry): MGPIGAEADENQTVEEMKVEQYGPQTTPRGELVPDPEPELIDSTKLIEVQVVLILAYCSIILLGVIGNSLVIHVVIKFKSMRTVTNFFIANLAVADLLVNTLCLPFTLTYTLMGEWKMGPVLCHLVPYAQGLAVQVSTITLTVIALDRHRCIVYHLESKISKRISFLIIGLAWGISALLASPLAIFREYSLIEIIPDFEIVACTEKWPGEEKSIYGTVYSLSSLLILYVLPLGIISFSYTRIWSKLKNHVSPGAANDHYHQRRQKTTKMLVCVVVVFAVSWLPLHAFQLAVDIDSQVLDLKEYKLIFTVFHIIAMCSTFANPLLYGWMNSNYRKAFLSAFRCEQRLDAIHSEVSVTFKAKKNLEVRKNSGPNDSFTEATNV
The format is cell membranes, Membrane. The following applies: kan-ts.

Series [5] can be described thus: DRUGMATRIX: Phosphodiesterase PDE4 enzyme inhibition (substrate: [3H]cAMP + cAMP). The following applies: u-937; Not Active = under 50% inhibition at 10 µM.
A short description of series [6]: DRUGMATRIX: Potassium Channel [KATP] radioligand binding (ligand: [3H] Glyburide). The format is cell membranes, Membrane. The following applies: hit-t15; Not Active = under 50% inhibition at 10 µM.
For series [7], the target named is Matrix metalloproteinase-9 (Homo sapiens, UniProt P14780). It is filed as cell-based.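 Further: inhibition of isolated MMP-9 enzyme activity toward a synthetic peptide substrate, from the DrugMatrix protease screening panel; in other assays of this panel Not Active means under 50% inhibition at 10 µM.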
Chain of Matrix metalloproteinase-9 (P14780 whole entry): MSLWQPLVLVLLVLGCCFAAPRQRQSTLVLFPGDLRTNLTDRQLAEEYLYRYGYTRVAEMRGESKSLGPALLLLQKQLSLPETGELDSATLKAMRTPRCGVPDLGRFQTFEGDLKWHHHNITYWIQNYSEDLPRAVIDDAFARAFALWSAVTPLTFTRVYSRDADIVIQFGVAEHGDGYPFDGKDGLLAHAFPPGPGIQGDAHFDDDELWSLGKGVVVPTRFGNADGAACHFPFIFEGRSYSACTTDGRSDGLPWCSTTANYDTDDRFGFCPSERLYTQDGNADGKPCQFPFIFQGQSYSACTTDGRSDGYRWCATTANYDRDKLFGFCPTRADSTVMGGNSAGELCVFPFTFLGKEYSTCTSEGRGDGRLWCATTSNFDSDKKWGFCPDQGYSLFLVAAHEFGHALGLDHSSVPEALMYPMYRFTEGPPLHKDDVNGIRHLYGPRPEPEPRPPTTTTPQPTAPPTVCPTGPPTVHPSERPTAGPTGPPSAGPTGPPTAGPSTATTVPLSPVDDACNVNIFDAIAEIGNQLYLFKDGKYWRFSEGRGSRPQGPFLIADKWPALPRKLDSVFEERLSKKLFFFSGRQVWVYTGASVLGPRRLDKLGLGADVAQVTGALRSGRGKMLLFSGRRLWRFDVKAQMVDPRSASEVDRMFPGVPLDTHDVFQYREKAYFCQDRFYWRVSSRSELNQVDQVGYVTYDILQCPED
The target of a further series is Acetylcholinesterase (Homo sapiens, UniProt P22303). The experiment in a line: DRUGMATRIX: Acetylcholinesterase enzyme inhibition (substrate: acetylthiocholine). It is filed as cell-based, HEK293. The following applies: hek293; Not Active = under 50% inhibition at 10 µM.
Chain of Acetylcholinesterase (P22303 whole entry): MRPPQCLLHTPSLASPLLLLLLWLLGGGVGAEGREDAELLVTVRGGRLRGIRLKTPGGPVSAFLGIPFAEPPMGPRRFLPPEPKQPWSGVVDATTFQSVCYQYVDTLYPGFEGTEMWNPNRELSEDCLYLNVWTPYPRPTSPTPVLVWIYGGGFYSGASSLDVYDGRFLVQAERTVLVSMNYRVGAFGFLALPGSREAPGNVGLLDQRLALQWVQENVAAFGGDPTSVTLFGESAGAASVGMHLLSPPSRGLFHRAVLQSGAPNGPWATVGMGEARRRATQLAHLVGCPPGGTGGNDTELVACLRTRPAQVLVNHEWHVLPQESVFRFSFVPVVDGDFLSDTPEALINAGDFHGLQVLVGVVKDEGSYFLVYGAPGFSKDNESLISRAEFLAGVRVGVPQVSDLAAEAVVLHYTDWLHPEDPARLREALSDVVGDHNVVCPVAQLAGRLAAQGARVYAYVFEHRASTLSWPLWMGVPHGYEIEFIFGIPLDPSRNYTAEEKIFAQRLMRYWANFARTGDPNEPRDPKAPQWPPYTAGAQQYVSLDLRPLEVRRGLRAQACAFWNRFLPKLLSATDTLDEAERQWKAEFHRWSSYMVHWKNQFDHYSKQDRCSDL
The target of another series is T2, Adenosine receptor A3 (Homo sapiens, UniProt P0DMS8).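 Further: radioligand binding assay with AB-MECA serving as the labeled ligand; in other assays of this panel Not Active means under 50% inhibition at 10 µM.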
T2 sequence (P0DMS8 whole entry): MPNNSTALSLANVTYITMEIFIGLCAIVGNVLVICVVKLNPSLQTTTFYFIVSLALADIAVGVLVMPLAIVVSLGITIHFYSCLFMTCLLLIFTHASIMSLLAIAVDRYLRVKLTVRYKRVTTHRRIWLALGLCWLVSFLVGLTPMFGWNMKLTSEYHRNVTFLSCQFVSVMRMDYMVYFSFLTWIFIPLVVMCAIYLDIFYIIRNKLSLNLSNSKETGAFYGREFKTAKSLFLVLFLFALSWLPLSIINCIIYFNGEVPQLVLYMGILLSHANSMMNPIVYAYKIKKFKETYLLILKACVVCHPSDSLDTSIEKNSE
It is filed as cell membranes, CHO-K1, Membrane. The following applies: cho-k1.

The next series has as its target Cytochrome P450 3A4 (Homo sapiens, UniProt P08684). The following applies: bti-tn-5b1-4. Further: in other assays of this panel Not Active means under 50% inhibition at 10 µM.

Chain of Insulin receptor (P15127 27-759 limits assumed): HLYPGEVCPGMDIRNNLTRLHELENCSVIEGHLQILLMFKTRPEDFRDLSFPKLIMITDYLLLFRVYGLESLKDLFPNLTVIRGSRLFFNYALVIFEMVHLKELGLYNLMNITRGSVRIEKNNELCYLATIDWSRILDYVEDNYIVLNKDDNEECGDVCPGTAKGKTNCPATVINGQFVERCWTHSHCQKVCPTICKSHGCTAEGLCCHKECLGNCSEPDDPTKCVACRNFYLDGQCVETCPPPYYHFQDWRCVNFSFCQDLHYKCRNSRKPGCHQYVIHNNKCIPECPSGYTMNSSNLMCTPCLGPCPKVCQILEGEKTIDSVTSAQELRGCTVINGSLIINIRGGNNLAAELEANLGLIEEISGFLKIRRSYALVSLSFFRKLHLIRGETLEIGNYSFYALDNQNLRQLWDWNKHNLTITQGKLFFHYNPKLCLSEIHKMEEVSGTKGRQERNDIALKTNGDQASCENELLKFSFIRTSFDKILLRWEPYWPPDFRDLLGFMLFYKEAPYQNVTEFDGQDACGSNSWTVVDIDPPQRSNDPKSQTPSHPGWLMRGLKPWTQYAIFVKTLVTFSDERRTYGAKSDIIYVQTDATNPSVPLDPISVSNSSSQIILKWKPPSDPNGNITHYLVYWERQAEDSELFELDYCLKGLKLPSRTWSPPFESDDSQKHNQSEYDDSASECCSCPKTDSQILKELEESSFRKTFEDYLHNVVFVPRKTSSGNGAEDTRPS
Chain of Insulin receptor (P15127 764-1383 limits assumed): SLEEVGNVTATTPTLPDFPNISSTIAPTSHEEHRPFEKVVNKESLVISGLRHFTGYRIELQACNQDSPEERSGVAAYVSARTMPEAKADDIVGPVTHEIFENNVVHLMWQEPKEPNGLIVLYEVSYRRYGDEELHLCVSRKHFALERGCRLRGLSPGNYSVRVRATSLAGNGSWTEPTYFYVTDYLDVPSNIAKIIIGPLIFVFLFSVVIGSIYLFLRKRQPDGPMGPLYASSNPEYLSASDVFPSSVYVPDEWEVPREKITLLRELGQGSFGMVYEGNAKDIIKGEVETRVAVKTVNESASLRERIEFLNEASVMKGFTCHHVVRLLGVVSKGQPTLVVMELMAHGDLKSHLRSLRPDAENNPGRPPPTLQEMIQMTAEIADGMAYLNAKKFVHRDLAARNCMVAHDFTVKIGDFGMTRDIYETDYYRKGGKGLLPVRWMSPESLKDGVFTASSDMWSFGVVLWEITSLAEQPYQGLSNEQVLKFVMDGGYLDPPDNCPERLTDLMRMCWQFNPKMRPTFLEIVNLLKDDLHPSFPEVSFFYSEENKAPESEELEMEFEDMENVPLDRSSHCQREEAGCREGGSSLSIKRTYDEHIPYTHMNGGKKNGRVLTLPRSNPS
Chain of D(3) dopamine receptor (P35462 whole entry): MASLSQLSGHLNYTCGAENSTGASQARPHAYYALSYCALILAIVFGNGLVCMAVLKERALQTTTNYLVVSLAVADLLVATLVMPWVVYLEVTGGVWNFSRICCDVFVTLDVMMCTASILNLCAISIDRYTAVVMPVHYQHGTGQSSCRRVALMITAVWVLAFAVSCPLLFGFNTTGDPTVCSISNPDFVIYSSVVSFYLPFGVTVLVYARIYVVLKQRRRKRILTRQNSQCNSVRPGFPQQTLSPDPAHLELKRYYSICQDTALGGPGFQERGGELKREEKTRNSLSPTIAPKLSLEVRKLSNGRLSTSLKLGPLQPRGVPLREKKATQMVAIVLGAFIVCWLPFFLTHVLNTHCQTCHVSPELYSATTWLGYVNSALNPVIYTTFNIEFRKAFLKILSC
Chain of Cytochrome P450 3A4 (P08684 whole entry): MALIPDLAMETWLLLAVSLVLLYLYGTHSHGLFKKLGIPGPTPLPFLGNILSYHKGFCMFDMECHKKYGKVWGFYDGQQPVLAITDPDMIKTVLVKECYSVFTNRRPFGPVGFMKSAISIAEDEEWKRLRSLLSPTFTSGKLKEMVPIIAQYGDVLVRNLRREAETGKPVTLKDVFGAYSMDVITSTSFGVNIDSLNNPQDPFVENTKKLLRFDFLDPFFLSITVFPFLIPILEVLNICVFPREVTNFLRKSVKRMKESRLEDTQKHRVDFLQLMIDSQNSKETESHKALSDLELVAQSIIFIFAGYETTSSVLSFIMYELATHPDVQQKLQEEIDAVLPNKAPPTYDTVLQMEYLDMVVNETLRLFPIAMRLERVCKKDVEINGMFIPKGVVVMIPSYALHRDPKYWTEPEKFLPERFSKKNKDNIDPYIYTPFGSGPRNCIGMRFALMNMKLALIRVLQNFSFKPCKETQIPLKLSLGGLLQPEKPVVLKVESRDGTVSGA

The term IC50 denotes the concentration that gives 50% inhibition. Broadly, the Ki is the equilibrium dissociation constant of an inhibitor or competing ligand from its target. As for `COC1=CC(=O)C[C@@H](C)[C@]12Oc1c(Cl)c(OC)cc(OC)c1C2=O` [GRISEOFULVIN], the IC50 entry (in series [1]; in [2]; in series [3]; on Substance-P receptor; against Cannabinoid receptor 1; on D(3) dopamine receptor (cho)) was “Not Active” each time. Also, the IC50 result (on Insulin receptor; against Melanocortin receptor 4; in series [4]; in series [5]; in [6]; in [7]) was “Not Active” in each case. For the same compound, the IC50 entry at Acetylcholinesterase, on Adenosine receptor A3 and at Cytochrome P450 3A4 was “Not Active” throughout. Besides, the Ki result (in [1]; in series [2]; in series [3]; in series [5]; in [6]; on Cytochrome P450 3A4) was “Not Active” throughout.

As to `NS(=O)(=O)c1cc2c(cc1Cl)NCNS2(=O)=O` [HYDROCHLOROTHIAZIDE], the IC50 entry (in [1]; in series [2]; in [3]; on Substance-P receptor; at Cannabinoid receptor 1; on D(3) dopamine receptor (cho)) was “Not Active” in each case. Besides, the IC50 result (against Insulin receptor; against Melanocortin receptor 4; in series [4]; in series [5]; in series [6]; in [7]) was “Not Active” throughout. Besides, the IC50 result against Acetylcholinesterase, on Adenosine receptor A3 and against Cytochrome P450 3A4 was “Not Active” each time. Also, the Ki result (in series [1]; in [2]; in [3]; in series [5]; in series [6]; at Cytochrome P450 3A4) was “Not Active” throughout.

Regarding `CN1CCC[C@H]1c1cccnc1` [NICOTINE], the IC50 entry (in series [1]; in series [2]; in series [3]; at Substance-P receptor; at Cannabinoid receptor 1; on D(3) dopamine receptor (cho)) was “Not Active” in each case. The IC50 result (against Insulin receptor; on Melanocortin receptor 4; in series [4]; in [5]; in series [6]; in [7]) was “Not Active” in each case. For the same compound, the IC50 entry against Acetylcholinesterase, against Adenosine receptor A3 and on Cytochrome P450 3A4 was “Not Active” throughout. Further, the Ki result (in [1]; in series [2]; in series [3]; in series [5]; in [6]; on Cytochrome P450 3A4) was “Not Active” each time.

With `O=C1CN=C(c2ccccc2)c2cc([N+](=O)[O-])ccc2N1` [NITRAZEPAM], the IC50 entry (in [1]; in series [2]; in [3]; at Substance-P receptor; against Cannabinoid receptor 1; at D(3) dopamine receptor (cho)) was “Not Active” each time. In addition, the IC50 result (on Insulin receptor; on Melanocortin receptor 4; in series [4]; in [5]; in [6]; in series [7]) was “Not Active” throughout. Further, the IC50 result against Acetylcholinesterase, at Adenosine receptor A3 and against Cytochrome P450 3A4 was “Not Active” throughout. Moreover, the Ki result (in series [1]; in series [2]; in series [3]; in series [5]; in series [6]; at Cytochrome P450 3A4) was “Not Active” each time.

Consider `CNCCC=C1c2ccccc2CCc2ccccc21` [NORTRIPTYLINE], for which the IC50 entry in series [1] was “Not Active”; in series [2] it was “Not Active”; in series [3], “Not Active”; against Substance-P receptor it was “Not Active”; on Cannabinoid receptor 1, “Not Active”; on D(3) dopamine receptor (read-out: IC50), 179 nM. The IC50 entry (against Insulin receptor; at Melanocortin receptor 4; in series [4]; in series [5]; in series [6]; in series [7]) was “Not Active” throughout. Moreover, the IC50 result against Acetylcholinesterase, against Adenosine receptor A3 and on Cytochrome P450 3A4 was “Not Active” throughout. The Ki entry in [1] is “Not Active”; in series [2] it was “Not Active”; in [3], “Not Active”; at D(3) dopamine receptor (read-out: Ki), 61 nM; in series [5] it was “Not Active”; in [6], “Not Active”. Besides, at Cytochrome P450 3A4, the Ki result is listed as “Not Active”.

As to `Oc1cccc2cccnc12` [OXYQUINOLINE], the IC50 entry (in [1]; in series [2]; in [3]; against Substance-P receptor; against Cannabinoid receptor 1; at D(3) dopamine receptor (cho)) was “Not Active” in each case. Further, the IC50 result (against Insulin receptor; on Melanocortin receptor 4; in series [4]; in [5]; in series [6]; in series [7]) was “Not Active” in each case. In addition, the 50% inhibitory concentration (IC50) result at Acetylcholinesterase, at Adenosine receptor A3 and at Cytochrome P450 3A4 was “Not Active” throughout. For the same compound, the Ki entry (in series [1]; in series [2]; in series [3]; in series [5]; in series [6]; at Cytochrome P450 3A4) was “Not Active” in each case.

Regarding `CN(C)[C@@H]1C(O)=C(C(N)=O)C(=O)[C@@]2(O)C(O)=C3C(=O)c4c(O)cccc4[C@@](C)(O)[C@H]3[C@H](O)[C@@H]12` [OXYTETRACYCLINE], the IC50 entry (in [1]; in series [2]; in series [3]; at Substance-P receptor; against Cannabinoid receptor 1; on D(3) dopamine receptor (cho)) was “Not Active” each time. The concentration for half-maximal inhibition (IC50) entry (at Insulin receptor; at Melanocortin receptor 4; in series [4]; in series [5]; in series [6]; in series [7]) was “Not Active” throughout. In addition, the IC50 entry against Acetylcholinesterase, against Adenosine receptor A3 and on Cytochrome P450 3A4 was “Not Active” throughout. For the same compound, the Ki entry (in series [1]; in series [2]; in series [3]; in [5]; in series [6]; at Cytochrome P450 3A4) was “Not Active” throughout.
